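Where inhibition never reached the appropriate level, the endpoint shown equals the highest concentration tested. Otherwise, values were interpolated linearly from a five-concentration, 48-hour dose response in 96-well plates. GI50 is the concentration that inhibits growth by half.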 The source made the active and inactive calls. Rule as the data show it: active = GI50 up to about 1.1 µM and inactive = higher.
How the values were obtained:
Test in all cases: NCI-60 cell line screen, 48 h
786-0 = tested on: 786-0
A498 = tested on: A498
A549 = tested on: A549
ACHN = tested on: ACHN
BT-549 = tested on: BT-549
COLO 205 = tested on: COLO 205
DU-145 = tested on: DU-145
EKVX = tested on: EKVX
HCC 2998 = tested on: HCC 2998
HCT-116 = tested on: HCT-116
HCT-15 = tested on: HCT-15
HOP-62 = tested on: HOP-62
HOP-92 = tested on: HOP-92
HT-29 = tested on: HT-29
Hs-578T = tested on: Hs-578T
IGROV-1 = tested on: IGROV-1
K562 = tested on: K562
KM12 = tested on: KM12
M14 = tested on: M14
MCF7 = tested on: MCF7
MDA-MB-231 = tested on: MDA-MB-231
MDA-MB-435 = tested on: MDA-MB-435
MDA-N = tested on: MDA-N
MOLT-4 = tested on: MOLT-4
NCI-H226 = tested on: NCI-H226
NCI-H23 = tested on: NCI-H23
NCI-H460 = tested on: NCI-H460
NCI/ADR-RES = tested on: NCI/ADR-RES
OVCAR-3 = tested on: OVCAR-3
OVCAR-4 = tested on: OVCAR-4
OVCAR-5 = tested on: OVCAR-5
OVCAR-8 = tested on: OVCAR-8
RPMI-8226 = tested on: RPMI-8226
RXF 393 = tested on: RXF 393
SF-268 = tested on: SF-268
SF-539 = tested on: SF-539
SK-MEL-28 = tested on: SK-MEL-28
SK-MEL-2 = tested on: SK-MEL-2
SK-MEL-5 = tested on: SK-MEL-5
SK-OV-3 = tested on: SK-OV-3
SN12C = tested on: SN12C
SNB-19 = tested on: SNB-19
SNB-75 = tested on: SNB-75
SW-620 = tested on: SW-620
T47D = tested on: T47D
TK-10 = tested on: TK-10
U-251 = tested on: U-251
UACC-257 = tested on: UACC-257
UACC-62 = tested on: UACC-62
UO-31 = tested on: UO-31
CCRF-CEM = tested on: CCRF-CEM
SF-295 = tested on: SF-295
CAKI-1 = tested on: CAKI-1
LOX IMVI = tested on: LOX IMVI
Malme-3M = tested on: Malme-3M
NCI-H522 = tested on: NCI-H522
PC-3 = tested on: PC-3

Measured: GI50

CC(C)(C)[Si](C)(C)OCCCCC1CC2(S(=O)(=O)C3=CC=C=C=C3)ON1CC2S(=O)(=O)c1ccccc1 (stereo not given)
inactive: 786-0 > 100 µM | A498 > 100 µM | A549 > 100 µM | ACHN > 100 µM | BT-549 > 100 µM | COLO 205 > 100 µM | DU-145 > 100 µM | EKVX > 100 µM | HCC 2998 > 100 µM | HCT-116 > 100 µM | HOP-62 > 100 µM | HOP-92 > 100 µM | HT-29 > 100 µM | Hs-578T > 100 µM | IGROV-1 > 100 µM | K562 > 100 µM | KM12 > 100 µM | M14 > 100 µM | MCF7 > 100 µM | MDA-MB-231 > 100 µM | MDA-MB-435 > 100 µM | MDA-N > 100 µM | MOLT-4 > 100 µM | NCI-H226 > 100 µM | NCI-H23 > 100 µM | NCI-H460 > 100 µM | NCI/ADR-RES > 100 µM | OVCAR-3 > 100 µM | OVCAR-4 > 100 µM | OVCAR-5 > 100 µM | OVCAR-8 > 100 µM | RPMI-8226 > 100 µM | RXF 393 > 100 µM | SF-268 > 100 µM | SF-539 > 100 µM | SK-MEL-28 > 100 µM | SK-MEL-2 > 100 µM | SK-MEL-5 > 100 µM | SK-OV-3 > 100 µM | SN12C > 100 µM | SNB-19 > 100 µM | SNB-75 > 100 µM | SW-620 > 100 µM | T47D > 100 µM | TK-10 > 100 µM | U-251 > 100 µM | UACC-257 84.9 µM | UACC-62 > 100 µM | UO-31 > 100 µM
> 100 µM: HCT-15

CC(=O)Nc1ccc(C(=O)NN2C(=O)CSC2c2ccccc2)cc1 (stereo not given)
inactive: 786-0 > 100 µM | A498 > 100 µM | A549 > 100 µM | ACHN > 100 µM | BT-549 34.5 µM | CCRF-CEM > 100 µM | COLO 205 > 100 µM | DU-145 > 100 µM | EKVX > 100 µM | HCC 2998 > 100 µM | HCT-116 > 100 µM | HOP-62 > 100 µM | HOP-92 > 100 µM | HT-29 > 100 µM | Hs-578T > 100 µM | IGROV-1 > 100 µM | K562 > 100 µM | KM12 > 100 µM | M14 > 100 µM | MCF7 > 100 µM | MDA-MB-231 > 100 µM | MDA-MB-435 > 100 µM | MDA-N > 100 µM | MOLT-4 > 100 µM | NCI-H226 > 100 µM | NCI-H23 > 100 µM | NCI-H460 > 100 µM | NCI/ADR-RES > 100 µM | OVCAR-3 > 100 µM | OVCAR-4 > 100 µM | OVCAR-5 > 100 µM | OVCAR-8 > 100 µM | RPMI-8226 > 100 µM | RXF 393 > 100 µM | SF-268 > 100 µM | SF-295 > 100 µM | SF-539 > 100 µM | SK-MEL-28 > 100 µM | SK-MEL-2 69.5 µM | SK-MEL-5 > 100 µM | SK-OV-3 > 100 µM | SN12C > 100 µM | SNB-19 > 100 µM | SNB-75 90.8 µM | SW-620 > 100 µM | T47D > 100 µM | TK-10 > 100 µM | U-251 > 100 µM | UACC-257 > 100 µM | UACC-62 > 100 µM | UO-31 > 100 µM
> 100 µM: HCT-15

CC(C)(C)OC(=O)N1CCC[C@H]1CSC[C@@H]1CCCN1C(=O)OC(C)(C)C
27.9 µM: HCT-15
inactive: 786-0 38.8 µM | A549 24.4 µM | ACHN 32.2 µM | BT-549 23.8 µM | CAKI-1 32.4 µM | CCRF-CEM 24.2 µM | COLO 205 16.8 µM | DU-145 44 µM | EKVX 32.8 µM | HCC 2998 39.8 µM | HCT-116 25.6 µM | HOP-62 41.5 µM | HOP-92 8.43 µM | HT-29 17.8 µM | Hs-578T 27 µM | IGROV-1 43.4 µM | K562 24.5 µM | KM12 20.9 µM | LOX IMVI 17.6 µM | M14 18.6 µM | MCF7 28.6 µM | MDA-MB-231 31.5 µM | MDA-MB-435 20.7 µM | MDA-N 29.4 µM | MOLT-4 16.7 µM | Malme-3M 25.6 µM | NCI-H23 20.7 µM | NCI-H460 34.3 µM | NCI-H522 24 µM | NCI/ADR-RES 18.7 µM | OVCAR-3 22.4 µM | OVCAR-4 28.7 µM | OVCAR-5 34.2 µM | OVCAR-8 29.3 µM | PC-3 26.9 µM | RXF 393 24.8 µM | SF-268 39.4 µM | SF-295 30.8 µM | SK-MEL-28 24.6 µM | SK-MEL-2 18.3 µM | SK-MEL-5 18.7 µM | SK-OV-3 69.5 µM | SN12C 32.2 µM | SNB-19 25.4 µM | SNB-75 23.9 µM | SW-620 30.3 µM | T47D 20.6 µM | TK-10 56.9 µM | U-251 29.7 µM | UACC-257 28.8 µM | UACC-62 21.7 µM | UO-31 26.2 µM

Reference: ChEMBL document CHEMBL1201862, “PubChem BioAssay data set” (2004)
